Results on six compounds are retold here after patent US8592460B2, “Amino-pyridine derivatives as S1P1 /EDG1 receptor agonists” (Actelion Pharmaceuticals Ltd., priority 2007, dated 2013).

In the test the test system is circulating lymphocytes. Briefly: Assessment of in vivo efficacy: circulating lymphocytes after oral administration. The arrangement: species or system rat. The conditions noted are these: 6 h after oral administration of 10 mg/kg to normotensive male Wistar rats, compared to vehicle-treated group; mean ± SEM. As for the experimental part: The efficacy of the compounds of formula (I) is assessed by measuring the circulating lymphocytes after oral administration of 3 to 30 mg/kg of a compound of formula (I) to normotensive male Wistar rats. The animals are housed in climate-controlled conditions with a 12 h-light/dark cycle, and have free access to normal rat chow and drinking water. Blood is collected before and 3, 6 and 24 h after drug administration. Full blood is subjected to hematology using Advia Hematology system (Bayer Diagnostics, Zurich, Switzerland).
All data are presented as mean±SEM. Statistical analyses are performed by analysis of variance (ANOVA) using Statistica (StatSoft) and the Student-Newman-Keuls procedure for multiple comparisons. The null hypothesis is rejected when p<0.05.
Lymphocyte counts 6 h after oral administration have been measured for 39 of the 258 exemplified compounds and are in the range of −82% to −48% with an average of −65%.
For the compound `CCc1cc(-c2nnc(-c3cc(C)nc(N(CC)CC)c3)s2)cc(C)c1OC[C@@H](O)CNC(=O)CO` [Example 94, N—((S)-3-{4-[5-(2-diethylamino-6-methyl-pyridin-4-yl)-[1,3,4]thiadiazol-2-yl]-2-ethyl-6-methyl-phenoxy}-2-hydroxy-propyl)-2-hydroxy-acetamide], the Lymphocyte counts is given as −75 ± 6%. As to `CCc1cc(-c2noc(-c3cc(C)nc(N(C)C(C)C)c3)n2)cc(C)c1OC[C@@H](O)CO` [Example 24, (S)-3-(2-Ethyl-4-{5-[2-(isopropyl-methyl-amino)-6-methyl-pyridin-4-yl]-[1,2,4]oxa-diazol-3-yl}-6-methyl-phenoxy)-propane-1,2-diol], the Lymphocyte counts is reported as −72 ± 1%. In the case of `COc1cc(-c2noc(-c3cc(C)nc(N(C)C(C)C)c3)n2)cc(Cl)c1OC[C@@H](O)CO` [Example 149, (S)-3-(2-chloro-4-{5-[2-(isopropyl-methyl-amino)-6-methyl-pyridin-4-yl]-[1,2,4]oxadiazol-3-yl}-6-methoxy-phenoxy)-propane-1,2-diol] it was −82 ± 2%.

As to `CCc1cc(-c2noc(-c3cc(C)nc(NC(C)C)c3)n2)cc(C)c1OC[C@@H](O)CO` [Example 199, (S)-3-{2-ethyl-4-[5-(2-isopropylamino-6-methyl-pyridin-4-yl)-[1,2,4]oxadiazol-3-yl]-6-methyl-phenoxy}-propane-1,2-diol], the Lymphocyte counts is −72 ± 3%.

As to `CCN(CC)c1cc(-c2nc(-c3cc(C)c(OC[C@@H](O)CO)c(C)c3)no2)cc(C)n1` [Example 11, (S)-3-{4-[5-(2-diethylamino-6-methyl-pyridin-4-yl)-[1,2,4]oxadiazol-3-yl]-2,6-dimethyl-phenoxy}-propane-1,2-diol], the Lymphocyte counts is −70 ± 2%. As for `CCc1cc(-c2noc(-c3cc(C)nc(N4CCCC4)c3)n2)cc(C)c1OC[C@@H](O)CNC(=O)CO` [Example 188, N—((S)-3-{2-ethyl-6-methyl-4-[5-(2-methyl-6-pyrrolidin-1-yl-pyridin-4-yl)-[1,2,4]oxadiazol-3-yl]-phenoxy}-2-hydroxy-propyl)-2-hydroxy-acetamide], the Lymphocyte counts is on record as −76 ± 1%.
